Laboratory results published in ChEMBL document CHEMBL1909046, “DrugMatrix in vitro pharmacology data”.

Tests used:
[1] = DRUGMATRIX: Sodium/nucleoside co-transporter radioligand binding (ligand: nitrobenzylthioinosine); assay type: cell membranes, Cavia porcellus, Dunkin-Hartley, Cerebral cortex, Membrane; details: Not Active = under 50% inhibition at 10 µM
[2] = target: T1, Alpha-1B adrenergic receptor (Rattus norvegicus, UniProt P15823); experiment: DRUGMATRIX: Alpha-1B adrenergic receptor radioligand binding (ligand: prazosin); assay type: cell membranes, Wistar, Liver, Membrane; details: Not Active = under 50% inhibition at 10 µM; for Ki: read-out: Ki
T1 sequence (P15823 whole entry): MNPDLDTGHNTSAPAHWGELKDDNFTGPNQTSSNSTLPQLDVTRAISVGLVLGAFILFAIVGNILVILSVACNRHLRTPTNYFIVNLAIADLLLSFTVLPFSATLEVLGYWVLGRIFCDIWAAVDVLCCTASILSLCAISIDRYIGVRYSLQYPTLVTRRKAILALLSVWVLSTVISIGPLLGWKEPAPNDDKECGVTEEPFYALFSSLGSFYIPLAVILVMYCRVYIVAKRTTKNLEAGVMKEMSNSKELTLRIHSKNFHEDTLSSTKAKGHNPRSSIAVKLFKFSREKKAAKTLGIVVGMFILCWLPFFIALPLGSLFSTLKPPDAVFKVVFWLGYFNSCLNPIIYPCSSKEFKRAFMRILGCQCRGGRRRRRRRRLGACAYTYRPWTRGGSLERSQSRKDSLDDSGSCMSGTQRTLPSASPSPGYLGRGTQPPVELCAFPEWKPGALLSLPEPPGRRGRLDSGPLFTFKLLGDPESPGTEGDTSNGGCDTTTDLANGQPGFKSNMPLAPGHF

[3] = DRUGMATRIX: Tumor Necrosis Factor (TNF), Non-Selective radioligand binding (ligand: [125I] TNF-alpha); assay type: cell membranes, Membrane; details: u-937; Not Active = under 50% inhibition at 10 µM
[4] = DRUGMATRIX: Imidazoline I2, Central radioligand binding (ligand: [3H] Idazoxan); assay type: cell membranes, Rattus norvegicus, Wistar, Cerebral cortex, Membrane; details: Not Active = under 50% inhibition at 10 µM
Melanocortin receptor 3 = Melanocortin receptor 3 (Homo sapiens, UniProt P41968); assay type: cell membranes, HEK293, Membrane; details: hek293; also: in other assays of this panel Not Active means under 50% inhibition at 10 µM
Sequence of Melanocortin receptor 3 (P41968 whole entry): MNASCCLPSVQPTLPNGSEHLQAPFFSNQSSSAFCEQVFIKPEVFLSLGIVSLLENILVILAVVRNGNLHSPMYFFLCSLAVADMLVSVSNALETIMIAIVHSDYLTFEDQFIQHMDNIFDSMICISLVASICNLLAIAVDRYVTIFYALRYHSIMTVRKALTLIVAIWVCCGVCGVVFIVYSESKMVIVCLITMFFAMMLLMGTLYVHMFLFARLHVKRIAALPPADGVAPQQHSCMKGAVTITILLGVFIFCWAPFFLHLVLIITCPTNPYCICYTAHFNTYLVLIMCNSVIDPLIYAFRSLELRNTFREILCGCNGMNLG

Cytochrome P450 2C19 = Cytochrome P450 2C19 (Homo sapiens, UniProt P33261); details: bti-tn-5b1-4; also: in other assays of this panel Not Active means under 50% inhibition at 10 µM
Sequence of Cytochrome P450 2C19 (P33261 whole entry): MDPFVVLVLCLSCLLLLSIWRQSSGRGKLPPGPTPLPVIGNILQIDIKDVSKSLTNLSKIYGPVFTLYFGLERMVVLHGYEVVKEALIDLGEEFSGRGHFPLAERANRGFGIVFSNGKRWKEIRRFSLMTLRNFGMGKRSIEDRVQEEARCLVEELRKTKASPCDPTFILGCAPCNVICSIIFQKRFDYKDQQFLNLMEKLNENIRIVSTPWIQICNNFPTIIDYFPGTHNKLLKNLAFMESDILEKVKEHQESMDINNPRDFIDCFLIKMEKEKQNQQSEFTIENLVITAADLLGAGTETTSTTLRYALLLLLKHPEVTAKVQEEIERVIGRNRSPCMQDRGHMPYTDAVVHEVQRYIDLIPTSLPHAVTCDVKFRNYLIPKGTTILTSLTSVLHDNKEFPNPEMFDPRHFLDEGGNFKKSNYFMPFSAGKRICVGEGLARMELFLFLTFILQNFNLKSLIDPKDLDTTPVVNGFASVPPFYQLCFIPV

Cytochrome P450 2E1 = Cytochrome P450 2E1 (Homo sapiens, UniProt P05181); details: bti-tn-5b1-4; also: in other assays of this panel Not Active means under 50% inhibition at 10 µM
Sequence of Cytochrome P450 2E1 (P05181 whole entry): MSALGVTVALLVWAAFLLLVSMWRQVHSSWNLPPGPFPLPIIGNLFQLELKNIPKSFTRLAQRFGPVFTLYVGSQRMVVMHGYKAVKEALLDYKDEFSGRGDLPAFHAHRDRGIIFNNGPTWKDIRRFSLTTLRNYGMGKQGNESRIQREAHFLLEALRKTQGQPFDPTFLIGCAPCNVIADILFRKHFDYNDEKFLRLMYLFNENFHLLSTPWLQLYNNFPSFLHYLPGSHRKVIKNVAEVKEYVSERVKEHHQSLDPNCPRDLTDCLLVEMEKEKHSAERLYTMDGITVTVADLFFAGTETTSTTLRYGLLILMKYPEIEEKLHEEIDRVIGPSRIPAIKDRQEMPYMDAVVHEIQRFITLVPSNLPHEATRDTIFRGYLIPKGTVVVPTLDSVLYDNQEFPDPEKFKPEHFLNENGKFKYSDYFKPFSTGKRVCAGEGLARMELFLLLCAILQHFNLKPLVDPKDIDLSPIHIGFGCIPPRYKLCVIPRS

Cytochrome P450 2D6 = Cytochrome P450 2D6 (Homo sapiens, UniProt P10635); details: bti-tn-5b1-4; also: in other assays of this panel Not Active means under 50% inhibition at 10 µM
Sequence of Cytochrome P450 2D6 (P10635 whole entry): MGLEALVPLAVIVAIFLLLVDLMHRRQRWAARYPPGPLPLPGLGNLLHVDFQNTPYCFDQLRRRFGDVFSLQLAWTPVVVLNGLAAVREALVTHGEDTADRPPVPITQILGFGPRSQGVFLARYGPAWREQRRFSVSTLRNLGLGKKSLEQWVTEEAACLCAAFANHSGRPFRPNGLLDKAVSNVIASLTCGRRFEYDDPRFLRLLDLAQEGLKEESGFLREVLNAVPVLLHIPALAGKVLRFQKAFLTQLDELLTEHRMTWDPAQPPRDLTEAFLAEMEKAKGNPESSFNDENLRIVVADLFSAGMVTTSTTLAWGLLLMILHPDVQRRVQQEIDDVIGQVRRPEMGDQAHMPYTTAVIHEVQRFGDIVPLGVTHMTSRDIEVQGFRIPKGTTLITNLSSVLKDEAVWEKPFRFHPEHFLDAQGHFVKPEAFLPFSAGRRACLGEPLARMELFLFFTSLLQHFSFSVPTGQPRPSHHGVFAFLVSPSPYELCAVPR

| Compound | IC50 [1] | Ki [1] | IC50 [2] | IC50 [3] | Ki [3] | IC50 [4] | Ki [4] | IC50 (Melanocortin receptor 3) | IC50 (Cytochrome P450 2C19) | Ki (Cytochrome P450 2C19) | IC50 (Cytochrome P450 2E1) | Ki (Cytochrome P450 2E1) | IC50 (Cytochrome P450 2D6) | Ki (Cytochrome P450 2D6) | IC50 ([4]; read-out: IC50) [µM] | Ki ([4]; read-out: Ki) [µM] | IC50 ([2]; read-out: IC50) [µM] | Ki [2] [µM] |
| --- | --- | --- | --- | --- | --- | --- | --- | --- | --- | --- | --- | --- | --- | --- | --- | --- | --- | --- |
| CC(C)CN(C[C@@H](O)[C@H](Cc1ccccc1)NC(=O)O[C@H]1CCOC1)S(=O)(=O)c1ccc(N)cc1 | Not Active | Not Active | Not Active | Not Active | Not Active | Not Active | Not Active | Not Active | Not Active | Not Active | Not Active | Not Active | – | – | – | – | – | – |
| CN(C)c1nc(N(C)C)nc(N(C)C)n1 [ALTRETAMINE] | Not Active | Not Active | Not Active | Not Active | Not Active | Not Active | Not Active | Not Active | – | – | – | – | – | – | – | – | – | – |
| Nc1c(Br)cc(Br)cc1CN[C@H]1CC[C@H](O)CC1 [AMBROXOL] | Not Active | Not Active | Not Active | Not Active | Not Active | Not Active | Not Active | Not Active | – | – | – | – | – | – | – | – | – | – |
| Nc1ncn([C@@H]2O[C@H](CO)[C@@H](O)[C@H]2O)c(=O)n1 [AZACITIDINE] | Not Active | Not Active | Not Active | Not Active | Not Active | Not Active | Not Active | Not Active | – | – | Not Active | Not Active | Not Active | Not Active | – | – | – | – |
| CN(C)C(=O)Oc1cc(OC(=O)N(C)C)cc(C(O)CNC(C)(C)C)c1 (configuration not stated) [BAMBUTEROL] | Not Active | Not Active | Not Active | Not Active | Not Active | Not Active | Not Active | Not Active | Not Active | Not Active | Not Active | Not Active | – | – | – | – | – | – |
| CC(NC(C)(C)C)C(=O)c1cccc(Cl)c1 (configuration not stated) [BUPROPION] | Not Active | Not Active | Not Active | Not Active | Not Active | Not Active | Not Active | Not Active | – | – | Not Active | Not Active | Not Active | Not Active | – | – | – | – |
| CN(Cc1ccc(C(C)(C)C)cc1)Cc1cccc2ccccc12 [BUTENAFINE] | Not Active | Not Active | Not Active | Not Active | Not Active | Not Active | Not Active | Not Active | Not Active | Not Active | Not Active | Not Active | – | – | – | – | – | – |
| Cc1ccc(-c2cc(C(F)(F)F)nn2-c2ccc(S(N)(=O)=O)cc2)cc1 [CELECOXIB] | Not Active | Not Active | Not Active | Not Active | Not Active | Not Active | Not Active | Not Active | Not Active | Not Active | Not Active | Not Active | – | – | – | – | – | – |
| CN(C)CCCN1c2ccccc2Sc2ccc(Cl)cc21 [CHLORPROMAZINE] | Not Active | Not Active | – | Not Active | Not Active | – | – | – | – | – | Not Active | Not Active | – | – | 2.67 | 1.78 | – | – |
| C[C@H](CCC(=O)O)[C@H]1CC[C@H]2[C@@H]3[C@H](O)C[C@@H]4C[C@H](O)CC[C@]4(C)[C@H]3C[C@H](O)[C@]12C [CHOLIC ACID] | Not Active | Not Active | Not Active | Not Active | Not Active | Not Active | Not Active | Not Active | – | – | Not Active | Not Active | Not Active | Not Active | – | – | – | – |
| CC(C)(Oc1ccc(Cl)cc1)C(=O)O [CLOFIBRIC ACID] | Not Active | Not Active | Not Active | Not Active | Not Active | Not Active | Not Active | Not Active | – | – | Not Active | Not Active | – | – | – | – | – | – |
| Clc1cccc(Cl)c1NC1=NCCN1 [CLONIDINE] | Not Active | Not Active | – | Not Active | Not Active | – | – | Not Active | Not Active | Not Active | Not Active | Not Active | Not Active | Not Active | 0.064 | 0.043 | – | – |
| CC(C)[C@@]1(NC(=O)[C@@H]2C[C@@H]3c4cccc5[nH]cc(c45)C[C@H]3N(C)C2)O[C@@]2(O)[C@@H]3CCCN3C(=O)[C@H](Cc3ccccc3)N2C1=O.CS(=O)(=O)O [DIHYDROERGOCRISTINE MESYLATE] | Not Active | Not Active | – | Not Active | Not Active | – | – | Not Active | – | – | Not Active | Not Active | Not Active | Not Active | 0.00543 | 0.00362 | 0.0023 | 0.00127 |
| C[C@]12CC[C@@H]3c4ccc(O)cc4CC[C@H]3[C@@H]1CCC2=O [ESTRONE] | Not Active | Not Active | Not Active | Not Active | Not Active | Not Active | Not Active | Not Active | – | – | – | – | – | – | – | – | – | – |
| N=C(N)NCCN1CCCCCCC1 [GUANETHIDINE] | Not Active | Not Active | Not Active | Not Active | Not Active | Not Active | Not Active | Not Active | – | – | – | – | – | – | – | – | – | – |
| CCCCN1CCCC[C@H]1C(=O)Nc1c(C)cccc1C [LEVOBUPIVACAINE] | Not Active | Not Active | Not Active | Not Active | Not Active | Not Active | Not Active | Not Active | Not Active | Not Active | Not Active | Not Active | – | – | – | – | – | – |
| CC1(C)S[C@@H]2[C@H](NC(=O)Cc3ccccc3)C(=O)N2[C@H]1C(=O)O [PENICILLIN G] | Not Active | Not Active | Not Active | Not Active | Not Active | Not Active | Not Active | Not Active | – | – | – | – | – | – | – | – | – | – |
| CCCN1C[C@H](CSC)C[C@@H]2c3cccc4[nH]cc(c34)C[C@H]21 [PERGOLIDE] | Not Active | Not Active | – | Not Active | Not Active | – | – | Not Active | Not Active | Not Active | Not Active | Not Active | – | – | 3.08 | 2.05 | 2.62 | 1.45 |
| C1CCC(C(CC2CCCCN2)C2CCCCC2)CC1 (configuration not stated) [PERHEXILINE] | Not Active | Not Active | Not Active | Not Active | Not Active | Not Active | Not Active | Not Active | Not Active | Not Active | Not Active | Not Active | – | – | – | – | – | – |
| Cc1ccc(N(CC2=NCCN2)c2cccc(O)c2)cc1 [PHENTOLAMINE] | Not Active | Not Active | – | Not Active | Not Active | – | – | Not Active | Not Active | Not Active | Not Active | Not Active | – | – | 0.058 | 0.039 | – | – |
| CN(C)CCCN1c2ccccc2Sc2ccccc21 [PROMAZINE] | Not Active | Not Active | – | Not Active | Not Active | – | – | Not Active | – | – | Not Active | Not Active | – | – | 1.1 | 0.732 | 0.00819 | 0.00453 |
